Results taken from patent US11534457B2, “Use of dextran sulfate” (priority 2017, dated 2022).

What was measured:
[1] = test system: SAg system [PBMC and HUVEC+TCR ligands]; experiment: BioMAP SAg system; format: cell-based, Human
Text: (§1) In this study LMW-DS was characterized by profiling in the BioMAP® Diversity PLUS panel. The BioMAP® panel consists of human primary cell-based systems designed to model different aspects of the human body in an in vitro format. The 12 systems in the BioMAP® Diversity PLUS panel (Table 32) allow test agent characterization in an unbiased way across a broad set of systems modeling various human disease states. The BioMA®P systems are constructed with one or more primary cell types from healthy human donors, with stimuli, such as cytokines or growth factors, added to capture relevant signaling networks that naturally occur in human tissue or pathological conditions. […]
(§2) Systems are derived from either single cell types or co-culture systems. […] Test agents prepared in either DMSO (small molecules; final concentration 0.1%) or PBS (biologics) are added at the indicated concentrations 1-hr before stimulation, and remain in culture for 24-hrs or as otherwise indicated (48-hrs, MyoF system; 72-hrs, BT system (soluble readouts); 168-hrs, BT system (secreted IgG)). […] Soluble factors from supernatants are quantified using either HTRF® detection, bead-based multiplex immunoassay or capture ELISA. Overt adverse effects of test agents on cell proliferation and viability (cytotoxicity) are detected by sulforhodamine B (SRB) staining, for adherent cells, and alamarBlue® reduction for cells in suspension. […]

[2] = test system: 3C system [HUVEC+(IL-1β, TNFα and IFNγ)]; experiment: BioMAP 3C system; format: cell-based, Human
Text: as §1, §2

[3] = test system: βIII-tubulin expression in mouse cortical neurons; experiment: βIII-tubulin immunostaining (differentiation-related protein expression); format: cell-based; details: 48 h
Experimental: Neurons were cultured as 40,000 cells per well and Schwann cells 3,000 cells per. Cells were treated after 24 hours. The number of cells per well depended on the growth phenotype, proliferative capacity, etc.
PNGM was prepared by adding PNGM Singlequots (Lonza) to PNBM medium and pre-warmed to 37° C. Cells were thawed in a 37° C. water bath for no longer than 2 min and gently transferred into a 15 ml tube. 5 ml of medium was gently added drop-wise. Cell suspension was mixed by inverting the tube carefully twice. Cells were counted with a Cellometer AUTO T4 (Nexcelom Bioscience). 40,000 cells per well were seeded in previously coated 96-well plates. Cells were incubated at 37° C. with 5% CO2. […]
LMW-DS was prepared in the culture media of choice for each cell line and added to the respective wells in the doses 0.01 and 0.1 mg/ml. For cell survival assays cells were analyzed after 24 and 48 hours in eight identical wells/dose/time point. Differentiation and protein expression assay was analyzed after 48 hours, also in octuplicates. […]
The Acumen cytometer allows the direct cytometric analysis of attached cells without prior detachment. […] The protein content of the cells can also be directly measured and expressed as either ‘total protein content’ or ‘mean protein content’.

With “low molecular weight dextran sulfate [LMW-DS]” the Increased biomarker activity [1] was “IL-8”, the Increased biomarker activity [2] was “IL-8” and the βIII-tubulin intensity ([3]; 0.01 and 0.1 mg/ml) was “significantly increased”. For the same substance, the “size of βIII-tubulin positive cells vs control culture” value [3] was “larger”.
